According to patent US20030186434A1, “Method of forming vertebrate pancreas in vitro” (priority 2002, published 2003):

Test system: blastopore upper lip of early gastrula of a Xenopus
Assay: Tissue differentiation of blastopore upper lip treated with retinoic acid for three hours, light microscopy
Conditions: treated 3 hours, cultured 10 days

CC1=C(/C=C/C(C)=C/C=C/C(C)=C/C(=O)O)C(C)(C)CCC1 [Retinoic acid, retinoic acid]
Atypical epidermis differentiated, specimens (%) (10^−3 M, 12 specimens): 0 (0)
Cartilage differentiated, specimens (%) (10^−3 M, 12 specimens): 0 (0)
Cement gland differentiated, specimens (%) (10^−3 M, 12 specimens): 0 (0)
Coelomic epithelium differentiated, specimens (%) (10^−3 M, 12 specimens): 6 (50)
Ear vesicle differentiated, specimens (%) (10^−3 M, 12 specimens): 0 (0)
Epidermis differentiated, specimens (%) (10^−3 M, 12 specimens): 10 (83)
Eye or its fragments differentiated, specimens (%) (10^−3 M, 12 specimens): 0 (0)
Gastric gland differentiated, specimens (%) (10^−3 M, 12 specimens): 0 (0)
Hemocyte differentiated, specimens (%) (10^−3 M, 12 specimens): 0 (0)
Intestinal epithelium differentiated, specimens (%) (10^−3 M, 12 specimens): 12 (100)
Mesenchyme differentiated, specimens (%) (10^−3 M, 12 specimens): 12 (100)
Muscle differentiated, specimens (%) (10^−3 M, 12 specimens): 0 (0)
Neural tissue differentiated, specimens (%) (10^−3 M, 12 specimens): 0 (0)
Notochord differentiated, specimens (%) (10^−3 M, 12 specimens): 11 (92)
Pancreas differentiated, specimens (%) (10^−3 M, 12 specimens): 11 (92)
Pharyngeal epithelium differentiated, specimens (%) (10^−3 M, 12 specimens): 10 (83)
Pronephros differentiated, specimens (%) (10^−3 M, 12 specimens): 0 (0)
Yolk-rich cell differentiated, specimens (%) (10^−3 M, 12 specimens): 11 (92)
Atypical epidermis differentiated, specimens (%) (10^−4 M, 35 specimens): 0 (0)
Cartilage differentiated, specimens (%) (10^−4 M, 35 specimens): 0 (0)
Cement gland differentiated, specimens (%) (10^−4 M, 35 specimens): 0 (0)
Coelomic epithelium differentiated, specimens (%) (10^−4 M, 35 specimens): 5 (14)
Ear vesicle differentiated, specimens (%) (10^−4 M, 35 specimens): 0 (0)
Epidermis differentiated, specimens (%) (10^−4 M, 35 specimens): 8 (23)
Eye or its fragments differentiated, specimens (%) (10^−4 M, 35 specimens): 0 (0)
Gastric gland differentiated, specimens (%) (10^−4 M, 35 specimens): 0 (0)
Hemocyte differentiated, specimens (%) (10^−4 M, 35 specimens): 0 (0)
Intestinal epithelium differentiated, specimens (%) (10^−4 M, 35 specimens): 34 (97)
Mesenchyme differentiated, specimens (%) (10^−4 M, 35 specimens): 32 (91)
Muscle differentiated, specimens (%) (10^−4 M, 35 specimens): 7 (20)
Neural tissue differentiated, specimens (%) (10^−4 M, 35 specimens): 0 (0)
Notochord differentiated, specimens (%) (10^−4 M, 35 specimens): 33 (94)
Pancreas differentiated, specimens (%) (10^−4 M, 35 specimens): 25 (71)
Pharyngeal epithelium differentiated, specimens (%) (10^−4 M, 35 specimens): 21 (60)
Pronephros differentiated, specimens (%) (10^−4 M, 35 specimens): 0 (0)
Yolk-rich cell differentiated, specimens (%) (10^−4 M, 35 specimens): 29 (83)
Atypical epidermis differentiated, specimens (%) (10^−5 M, 35 specimens): 0 (0)
Cartilage differentiated, specimens (%) (10^−5 M, 35 specimens): 3 (9)
Cement gland differentiated, specimens (%) (10^−5 M, 35 specimens): 0 (0)
Coelomic epithelium differentiated, specimens (%) (10^−5 M, 35 specimens): 5 (14)
Ear vesicle differentiated, specimens (%) (10^−5 M, 35 specimens): 0 (0)
Epidermis differentiated, specimens (%) (10^−5 M, 35 specimens): 13 (37)
Eye or its fragments differentiated, specimens (%) (10^−5 M, 35 specimens): 0 (0)
Gastric gland differentiated, specimens (%) (10^−5 M, 35 specimens): 9 (26)
Hemocyte differentiated, specimens (%) (10^−5 M, 35 specimens): 0 (0)
Intestinal epithelium differentiated, specimens (%) (10^−5 M, 35 specimens): 33 (94)
Mesenchyme differentiated, specimens (%) (10^−5 M, 35 specimens): 20 (57)
Muscle differentiated, specimens (%) (10^−5 M, 35 specimens): 4 (11)
Neural tissue differentiated, specimens (%) (10^−5 M, 35 specimens): 1 (3)
Notochord differentiated, specimens (%) (10^−5 M, 35 specimens): 25 (71)
Pancreas differentiated, specimens (%) (10^−5 M, 35 specimens): 15 (43)
Pharyngeal epithelium differentiated, specimens (%) (10^−5 M, 35 specimens): 19 (54)
Pronephros differentiated, specimens (%) (10^−5 M, 35 specimens): 12 (34)
Yolk-rich cell differentiated, specimens (%) (10^−5 M, 35 specimens): 30 (86)
Atypical epidermis differentiated, specimens (%) (10^−6 M, 35 specimens): 0 (0)
Cartilage differentiated, specimens (%) (10^−6 M, 35 specimens): 22 (63)
Cement gland differentiated, specimens (%) (10^−6 M, 35 specimens): 0 (0)
Coelomic epithelium differentiated, specimens (%) (10^−6 M, 35 specimens): 12 (34)
Ear vesicle differentiated, specimens (%) (10^−6 M, 35 specimens): 0 (0)
Epidermis differentiated, specimens (%) (10^−6 M, 35 specimens): 34 (97)
Eye or its fragments differentiated, specimens (%) (10^−6 M, 35 specimens): 0 (0)
Gastric gland differentiated, specimens (%) (10^−6 M, 35 specimens): 1 (3)
Hemocyte differentiated, specimens (%) (10^−6 M, 35 specimens): 0 (0)
Intestinal epithelium differentiated, specimens (%) (10^−6 M, 35 specimens): 4 (11)
Mesenchyme differentiated, specimens (%) (10^−6 M, 35 specimens): 35 (100)
Muscle differentiated, specimens (%) (10^−6 M, 35 specimens): 20 (57)
Neural tissue differentiated, specimens (%) (10^−6 M, 35 specimens): 15 (43)
Notochord differentiated, specimens (%) (10^−6 M, 35 specimens): 30 (86)
Pancreas differentiated, specimens (%) (10^−6 M, 35 specimens): 1 (3)
Pharyngeal epithelium differentiated, specimens (%) (10^−6 M, 35 specimens): 34 (97)
Pronephros differentiated, specimens (%) (10^−6 M, 35 specimens): 0 (0)
Yolk-rich cell differentiated, specimens (%) (10^−6 M, 35 specimens): 31 (89)
Atypical epidermis differentiated, specimens (%) (10^−7 M, 32 specimens): 0 (0)
Cartilage differentiated, specimens (%) (10^−7 M, 32 specimens): 16 (50)
Cement gland differentiated, specimens (%) (10^−7 M, 32 specimens): 0 (0)
Coelomic epithelium differentiated, specimens (%) (10^−7 M, 32 specimens): 5 (16)
Ear vesicle differentiated, specimens (%) (10^−7 M, 32 specimens): 0 (0)
Epidermis differentiated, specimens (%) (10^−7 M, 32 specimens): 31 (97)
Eye or its fragments differentiated, specimens (%) (10^−7 M, 32 specimens): 0 (0)
Gastric gland differentiated, specimens (%) (10^−7 M, 32 specimens): 0 (0)
Hemocyte differentiated, specimens (%) (10^−7 M, 32 specimens): 0 (0)
Intestinal epithelium differentiated, specimens (%) (10^−7 M, 32 specimens): 1 (3)
Mesenchyme differentiated, specimens (%) (10^−7 M, 32 specimens): 32 (100)
Muscle differentiated, specimens (%) (10^−7 M, 32 specimens): 24 (75)
Neural tissue differentiated, specimens (%) (10^−7 M, 32 specimens): 9 (28)
Notochord differentiated, specimens (%) (10^−7 M, 32 specimens): 31 (97)
Pancreas differentiated, specimens (%) (10^−7 M, 32 specimens): 0 (0)
Pharyngeal epithelium differentiated, specimens (%) (10^−7 M, 32 specimens): 30 (94)
Pronephros differentiated, specimens (%) (10^−7 M, 32 specimens): 0 (0)
Yolk-rich cell differentiated, specimens (%) (10^−7 M, 32 specimens): 24 (75)
Atypical epidermis differentiated, specimens (%) (10^−8 M, 20 specimens): 0 (0)
Cartilage differentiated, specimens (%) (10^−8 M, 20 specimens): 5 (25)
Cement gland differentiated, specimens (%) (10^−8 M, 20 specimens): 0 (0)
Coelomic epithelium differentiated, specimens (%) (10^−8 M, 20 specimens): 3 (15)
Ear vesicle differentiated, specimens (%) (10^−8 M, 20 specimens): 0 (0)
Epidermis differentiated, specimens (%) (10^−8 M, 20 specimens): 20 (100)
Eye or its fragments differentiated, specimens (%) (10^−8 M, 20 specimens): 0 (0)
Gastric gland differentiated, specimens (%) (10^−8 M, 20 specimens): 0 (0)
Hemocyte differentiated, specimens (%) (10^−8 M, 20 specimens): 0 (0)
Intestinal epithelium differentiated, specimens (%) (10^−8 M, 20 specimens): 0 (0)
Mesenchyme differentiated, specimens (%) (10^−8 M, 20 specimens): 20 (100)
Muscle differentiated, specimens (%) (10^−8 M, 20 specimens): 17 (85)
Neural tissue differentiated, specimens (%) (10^−8 M, 20 specimens): 2 (10)
Notochord differentiated, specimens (%) (10^−8 M, 20 specimens): 18 (90)
Pancreas differentiated, specimens (%) (10^−8 M, 20 specimens): 2 (10)
Pharyngeal epithelium differentiated, specimens (%) (10^−8 M, 20 specimens): 17 (85)
Pronephros differentiated, specimens (%) (10^−8 M, 20 specimens): 0 (0)
Yolk-rich cell differentiated, specimens (%) (10^−8 M, 20 specimens): 16 (80)
